Test system: P12-Ichikawa
Assay: cell viability relative to DMSO control; higher = less cytotoxic
Settings: 48 h
In short: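 Before seeding, each leukemia line was adapted for at least four passages in each medium. NOMO1 or SEM cells (500 cells/well) and P12-Ichikawa cells (1000 cells/well) went into 1536-well plates at 5 μl, then received library compounds in DMSO by pin dosing across 11 threefold concentrations, 47 μM to 0.79 nM. Readout was CellTiter-Glo One luminescence after 48 h at 37°C, and viability is given as a per-plate percentage of DMSO wells, with cell-free wells as background.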

[1] = HPLM + 10% dialyzed FBS, 0.000781 µM
[2] = HPLM + 10% dialyzed FBS, 0.00234 µM
[3] = HPLM + 10% dialyzed FBS, 0.00702 µM
[4] = HPLM + 10% dialyzed FBS, 0.0211 µM
[5] = HPLM + 10% dialyzed FBS, 0.0632 µM
[6] = HPLM + 10% dialyzed FBS, 0.19 µM
[7] = HPLM + 10% dialyzed FBS, 0.569 µM
[8] = HPLM + 10% dialyzed FBS, 1.71 µM
[9] = HPLM + 10% dialyzed FBS, 5.12 µM
[10] = HPLM + 10% dialyzed FBS, 15.4 µM
[11] = HPLM + 10% dialyzed FBS, 46.1 µM
[12] = RPMI 5 mM glucose + 10% FBS, 0.000781 µM
[13] = RPMI 5 mM glucose + 10% FBS, 0.00234 µM
[14] = RPMI 5 mM glucose + 10% FBS, 0.00702 µM
[15] = RPMI 5 mM glucose + 10% FBS, 0.0211 µM
[16] = RPMI 5 mM glucose + 10% FBS, 0.0632 µM
[17] = RPMI 5 mM glucose + 10% FBS, 0.19 µM
[18] = RPMI 5 mM glucose + 10% FBS, 0.569 µM
[19] = RPMI 5 mM glucose + 10% FBS, 1.71 µM
[20] = RPMI 5 mM glucose + 10% FBS, 5.12 µM
[21] = RPMI 5 mM glucose + 10% FBS, 15.4 µM
[22] = RPMI 5 mM glucose + 10% FBS, 46.1 µM
[23] = RPMI 5 mM glucose + 10% dialyzed FBS, 0.000781 µM
[24] = RPMI 5 mM glucose + 10% dialyzed FBS, 0.00234 µM
[25] = RPMI 5 mM glucose + 10% dialyzed FBS, 0.00702 µM
[26] = RPMI 5 mM glucose + 10% dialyzed FBS, 0.0211 µM
[27] = RPMI 5 mM glucose + 10% dialyzed FBS, 0.0632 µM
[28] = RPMI 5 mM glucose + 10% dialyzed FBS, 0.19 µM
[29] = RPMI 5 mM glucose + 10% dialyzed FBS, 0.569 µM
[30] = RPMI 5 mM glucose + 10% dialyzed FBS, 1.71 µM
[31] = RPMI 5 mM glucose + 10% dialyzed FBS, 5.12 µM
[32] = RPMI 5 mM glucose + 10% dialyzed FBS, 15.4 µM
[33] = RPMI 5 mM glucose + 10% dialyzed FBS, 46.1 µM

Compound | cell viability [1] [%] | cell viability [2] [%] | cell viability [3] [%] | cell viability [4] [%] | cell viability [5] [%] | cell viability [6] [%] | cell viability [7] [%] | cell viability [8] [%] | cell viability [9] [%] | cell viability [10] [%] | cell viability [11] [%] | cell viability [12] [%] | cell viability [13] [%] | cell viability [14] [%] | cell viability [15] [%] | cell viability [16] [%] | cell viability [17] [%] | cell viability [18] [%] | cell viability [19] [%] | cell viability [20] [%] | cell viability [21] [%] | cell viability [22] [%] | cell viability [23] [%] | cell viability [24] [%] | cell viability [25] [%] | cell viability [26] [%] | cell viability [27] [%] | cell viability [28] [%] | cell viability [29] [%] | cell viability [30] [%] | cell viability [31] [%] | cell viability [32] [%] | cell viability [33] [%]
CCC(CC)[C@H](NC(C)=O)[C@@H]1[C@H](O)[C@@H](C(=O)O)C[C@H]1NC(=N)N | 84.6 | 86.3 | 86.2 | 95.4 | 102 | 84.1 | 95.6 | 89 | 100 | 91.4 | 101 | 85.2 | 79.7 | 81.5 | 86 | 84.2 | 75.9 | 84.8 | 85.1 | 87.4 | 78.1 | 86.9 | 75.7 | 82.1 | 81.7 | 86.4 | 83 | 80.5 | 77.4 | 81.8 | 76.5 | 82.6 | 86.8
CC1=C(C)C2=C(S1)[N]3C(=NN=C3[C@H](CC(=O)OC(C)(C)C)/N=C2/C4=CC=C(Cl)C=C4)C | 98.4 | 98.2 | 97.1 | 100 | 92.7 | 79.5 | 39.4 | 57.7 | 35.1 | 15.4 | 6.39 | 97.6 | 90.6 | 91.5 | 97.6 | 85.8 | 81.1 | 43 | 52.4 | 37.1 | 22.4 | 13.6 | 92.2 | 92.2 | 87.8 | 95 | 90.6 | 78.9 | 39.9 | 50.4 | 40.1 | 17.3 | 7.9
Cn1cc(-c2ccc3ncc(Cc4ccc5ncccc5c4)n3n2)cn1 | 96.8 | 105 | 107 | 107 | 105 | 104 | 113 | 107 | 105 | 107 | 100 | 102 | 108 | 100 | 103 | 102 | 109 | 111 | 107 | 106 | 104 | 102 | 103 | 119 | 112 | 109 | 110 | 104 | 115 | 114 | 102 | 98.7 | 110
CC1(C)CC(=O)c2c(C(F)(F)F)nn(-c3ccc(C(N)=O)c(NC4CCC(OC(=O)CN)CC4)c3)c2C1 (stereo not drawn) | 107 | 86.9 | 96.8 | 96.5 | 102 | 88.6 | 62.2 | 42.1 | 36.4 | 36.3 | 37.9 | 83.8 | 93.7 | 91.7 | 95.4 | 99.1 | 66.3 | 35.2 | 33.2 | 29.2 | 28.8 | 27.3 | 92.9 | 92.9 | 93 | 91.9 | 89.6 | 82.4 | 41 | 32.3 | 33.3 | 28.8 | 28.5
COc1ccc([C@@H]2CNC(=O)C2)cc1OC1CCCC1 | 103 | 107 | 104 | 110 | 109 | 111 | 113 | 109 | 117 | 114 | 109 | 101 | 104 | 110 | 99.8 | 97.1 | 113 | 117 | 105 | 117 | 118 | 108 | 99.1 | 106 | 113 | 107 | 118 | 110 | 114 | 103 | 113 | 111 | 118
Nc1cccc(-c2cc3c(Oc4cccc(O)c4)ncnc3[nH]2)c1 | 124 | 121 | 123 | 114 | 122 | 114 | 117 | 106 | 105 | 60.5 | 15.1 |  |  |  |  |  |  |  |  |  |  |  |  |  |  |  |  |  |  |  |  |  | 
CCOC(=O)c1ncn2c1CN(C)C(=O)c1cc(F)ccc1-2 | 120 | 113 | 113 | 117 | 107 | 107 | 111 | 106 | 72 | 67.7 | 62 | 106 | 113 | 109 | 114 | 116 | 126 | 103 | 106 | 92.2 | 71.7 | 48.9 | 112 | 119 | 107 | 119 | 123 | 113 | 116 | 102 | 84.8 | 74.4 | 46.7
Clc1ccc(COC(Cn2ccnc2)c2ccc(Cl)cc2Cl)cc1 (stereo not drawn) | 110 | 109 | 115 | 117 | 124 | 121 | 120 | 117 | 114 | 116 | 106 | 116 | 117 | 114 | 126 | 129 | 123 | 121 | 130 | 126 | 104 | 91.3 | 108 | 114 | 123 | 113 | 124 | 124 | 120 | 107 | 103 | 96.8 | 85.7
Cc1nc2c([nH]1)-c1ccccc1N(C(=O)c1ccc(NC(=O)c3ccccc3-c3ccccc3)cc1)CC2 | 114 | 120 | 122 | 117 | 127 | 126 | 124 | 128 | 121 | 128 | 128 |  |  |  |  |  |  |  |  |  |  |  |  |  |  |  |  |  |  |  |  |  | 

Reference: the supplement of paper PMC11451515
